{"source": "patent US10060933B2", "about": "“Methods for diagnosis and treatment of amyotrophic lateral sclerosis based on an increased level of interaction between TDP-43 polypeptide and NF-KB P65 polypeptide” (UNIVERSITE LAVAL, priority 2011, dated 2018)", "key": {"[1]": {"molecular_target": "T1, p65 (Mus musculus, UniProt Q04207)", "T1 construct": "from tissue; host or cells: spinal cord of GFAP-luc/TDP-43^Wt transgenic mice (nuclear lysates)", "test": "p65 EMSA on spinal cord tissue nuclear lysates", "type": "in vivo", "conditions": "treated vs untreated GFAP-luc/TDP-43^Wt mice", "description": "(§1) To study the in vivo effect of NF-κB inhibition on disease progression, we injected TDP-43^wt; GFAP-luc double transgenic mice with 3 mg/kg body weight of WA twice a week for 10-weeks starting at 30-weeks. […] We used TDP-43^wt; GFAP-luc double transgenic mice because the reporter luciferase (luc) allowed the longitudinal and non-invasive biophotonic imaging with CCD camera of the GFAP promoter activity which is a target of activated NF-κB. To analyse the spatial and temporal dynamics of astrocytes activation/GFAP induction in TDP-43 mouse model, we performed series of live imaging experiments. […] The downregulation of GFAP promoter activity was further confirmed in these mice using GFAP immunofluorescence of spinal cord sections of TDP-43^Wt mice (both drug-treated and untreated) (FIG. 8F). […] Down-regulation of GFAP along with reduction in active p65 levels in withaferin treated mice prompted us to analyse behavioural changes in these mice. […] The withaferin treated mice also had 40% reduction in the number of partially denervated neuromuscular junction (NMJ) (FIGS. 8E&G).\n48 hrs after transfection of CMV-p65 with pCMV-TDP43^WT or pCMV-TDP43^G348C and treatment with LPS, BV-2 cells were harvested and nuclear extracts prepared. […] Concentrations of nuclear proteins were determined on diluted samples using a Bradford assay (Biorad). […]"}, "[2]": {"system": "Mac-2 positive cells", "test": "Activated microglia (Mac-2, Cox-2) in spinal cord sections", "type": "in vivo, mouse", "description": "as §1\n(§2) 4% Paraformaldehyde (PFA) fixed spinal cord and brain sections of mice were sectioned and fixed on slides. For immunohistochemistry, tissues were treated with hydrogen-peroxide solution before permeabilisation. […]"}, "[3]": {"system": "GFAP", "test": "GFAP immunofluorescence of spinal cord sections", "type": "in vivo, mouse", "conditions": "GFAP-luc/TDP-43^Wt mice, treated vs untreated", "description": "as §1, §2"}, "[4]": {"system": "neuromuscular junctions", "test": "Neuromuscular junction staining and count", "type": "in vivo, mouse", "procedure": "For monitoring the neuromuscular junctions, 25 mm thick muscle sections were incubated for 1 h in 0.1 M glycine in PBS for 2 h at RT and then stained with Alexa Fluor 594-conjugated α-bungarotoxin (1:2000, Molecular Probes/Invitrogen detection technologies, Carlsbad, Calif., USA) diluted in 3% BSA in PBS for 3 h at RT. After washing in PBS, the muscle sections were blocked in 3% BSA, 10% goat serum and 0.5% Triton X-100 in PBS overnight at 48° C. The next day, the sections were incubated with mouse antineurofilament antibody 160 K (1:2000, Temecula, Calif., USA) and mouse anti-synaptophysin (Dako, Mississauga, ON, Canada) in the same blocking solution overnight at 48° C. After washing for 5 h, muscle sections were incubated with goat anti-mouse Alexa Fluor 488-conjugated secondary antibody (Probes/Invitrogen detection technologies, Carlsbad, Calif., USA) diluted 1:500 in blocking buffer for 3 h at RT. Three hundred neuromuscular junctions were counted per animal sample, discriminating both innervated and denervated junctions as described above. […]"}, "[5]": {"test": "Detection of Withaferin A in the CSF of mice using HPLC", "type": "in vivo, mouse", "description": "FIG. 15. Detection of Withaferin A in the CSF of mice using HPLC. […] For blank samples (B), 0.9% saline was injected in non-transgenic mice. 1.5 hrs after injection, CSF samples from the mice were obtained using […] into the cistern magna. 50 μl of the sample was mixed with 60% ACN 0.1% formic acid, centrifuged and the supernatant was injected into HPLC. […] 1000 ng/ml withaferin-a chemical served as a standard (C). Withaferin retention time was 1.6 mins."}, "[6]": {"system": "TDP-43^G348C mice", "test": "Accelerating rotarod in TDP-43^G348C mice", "type": "in vivo, mouse", "conditions": "WA-treated vs untreated TDP-43^G348C mice", "description": "Accelerating rotarod analysis was performed in TDP-43^G348C mice at various ages from 8 wk to 52 wk, and time taken by the mice to fall from the rotarod is used as rotarod performance. WA treatment period is marked as drug treatment period. Error bars represent mean±SEM (n=10 each group) (FIG. 25).\nAccelerating rotarod was performed on mice at 4 rpm speed with 0.25 rpm/sec acceleration as described elsewhere^30. Mice were subjected to three trials per session and every two weeks."}}, "note": "“Also recorded” adds a separate entry of the source."}
{"smiles": "CC1=C(CO)C(=O)O[C@@H]([C@@H](C)[C@H]2CC[C@H]3[C@@H]4C[C@H]5O[C@]56[C@@H](O)C=CC(=O)[C@]6(C)[C@H]4CC[C@]23C)C1", "note": "[Withaferin A]", "values": [{"measurement": "nuclear active p65 (EMSA)", "setting": "[1]", "value": "reduced amount of active p65; also recorded: much reduced nuclear active p65"}, {"measurement": "Mac-2^+ cells in L5 spinal cord", "setting": "[2]; TDP-43^Wt (Withaferin treated) mice, untreated 13000±500/mm^3", "value": "6000±300 /mm^3"}, {"measurement": "activated microglia (Mac-2 and Cox-2 double immunofluorescence)", "setting": "[2]; TDP-43^Wt mice, treated vs untreated", "value": "marked reduction in activated microglia"}, {"measurement": "GFAP activation (GFAP immunofluorescence of spinal cord sections)", "setting": "[3]", "value": "downregulation; also recorded: significantly low GFAP activation"}, {"measurement": "reduction in the number of partially denervated neuromuscular junction (NMJ)", "setting": "[4]; withaferin treated TDP-43^Wt mice vs untreated", "value": 40, "unit": "%"}, {"measurement": "number of partially denervated muscle (NMJ frequency)", "setting": "[4]; withaferin treated TDP-43^Wt mice, age-matched untreated 15±5%", "value": "9±4", "unit": "%"}, {"measurement": "Withaferin A in CSF (HPLC)", "setting": "[5]; 3 mg/kg intra-peritoneally, CSF 1.5 hrs after injection, 8-months old non-transgenic and TDP-43^Wt mice", "value": "presence of Withaferin-A"}, {"measurement": "passage of the blood-brain barrier", "setting": "[5]; mice, FIG. 15", "value": "passes the blood-brain barrier"}, {"measurement": "motor performance (accelerating rotarod, time to fall)", "setting": "[6]", "value": "significantly better motor performance"}]}
